Test results as given in ChEMBL document CHEMBL4229471, “Antiprotozoal and cysteine proteases inhibitory activity of dipeptidyl enoates” (Bioorg Med Chem, 2018).
Active and inactive are the calls of the source. The rule behind the calls is not given here.

Tests used:
Cathepsin B [1] = molecular target: T1, Cathepsin B (Homo sapiens, UniProt P07858); test: Inhibition of human cathepsin B at 20 uM using Cbz-Phe-Arg-AMC as substrate relative to control
Cathepsin B [2] = molecular target: T1, Cathepsin B; test: Inhibition of human cathepsin B assessed as second order rate constant using Cbz-Phe-Arg-AMC as substrate
Procathepsin L [3] = molecular target: T2, Procathepsin L (Homo sapiens, UniProt P07711); test: Inhibition of human cathepsin L at 20 uM using Cbz-Phe-Arg-AMC as substrate relative to control
Target sequence in this assay (P07711 114-333 limits assumed): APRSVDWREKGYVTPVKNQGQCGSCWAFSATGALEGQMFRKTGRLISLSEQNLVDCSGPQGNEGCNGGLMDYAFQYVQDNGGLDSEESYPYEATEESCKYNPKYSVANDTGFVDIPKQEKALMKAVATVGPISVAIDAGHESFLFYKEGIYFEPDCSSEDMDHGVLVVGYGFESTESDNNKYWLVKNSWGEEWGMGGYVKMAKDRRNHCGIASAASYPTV

Procathepsin L [4] = molecular target: T2, Procathepsin L; test: Inhibition of human cathepsin L assessed as second order rate constant using Cbz-Phe-Arg-AMC as substrate
Target sequence in this assay (P07711 114-333 limits assumed): as above

[5] = molecular target: T3, Falcipain 2 (Plasmodium falciparum) (UniProt Q9N6S8); test: Inhibition of Plasmodium falciparum falcipain-2 at 20 uM using Cbz-Phe-Arg-AMC as substrate measured for 15 mins by spectrofluorimetric method relative to control
T3 sequence (whole entry): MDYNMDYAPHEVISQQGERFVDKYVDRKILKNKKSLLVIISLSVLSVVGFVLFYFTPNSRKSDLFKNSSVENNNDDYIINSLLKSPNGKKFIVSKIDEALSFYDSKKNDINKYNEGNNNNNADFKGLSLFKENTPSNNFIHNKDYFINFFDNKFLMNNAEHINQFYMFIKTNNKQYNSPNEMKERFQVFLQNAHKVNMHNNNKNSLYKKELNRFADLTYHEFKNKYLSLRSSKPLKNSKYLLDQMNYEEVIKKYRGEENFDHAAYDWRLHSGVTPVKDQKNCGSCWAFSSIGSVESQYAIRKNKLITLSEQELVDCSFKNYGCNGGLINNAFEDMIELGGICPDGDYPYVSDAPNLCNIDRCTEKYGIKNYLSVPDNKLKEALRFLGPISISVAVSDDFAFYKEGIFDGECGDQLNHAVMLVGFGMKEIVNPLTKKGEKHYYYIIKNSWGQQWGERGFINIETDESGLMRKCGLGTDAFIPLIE

Falcipain 2 = molecular target: T4, Falcipain 2 (Plasmodium falciparum, UniProt Q9N6S8); test: Inhibition of Plasmodium falciparum falcipain-2 using Cbz-Phe-Arg-AMC as substrate measured for 15 mins by spectrofluorimetric method
T4 sequence (Q9N6S8 whole entry): T3 sequence (whole entry)

[6] = molecular target: T3, Falcipain 2 (Plasmodium falciparum); test: Inhibition of Plasmodium falciparum falcipain-2 assessed as second-order rate constant using Cbz-Phe-Arg-AMC as substrate measured for 15 mins by spectrofluorimetric method
[7] = molecular target: Rhodesain (Trypanosoma brucei rhodesiense) (UniProt Q95PM0); test: Inhibition of Trypanosoma brucei rhodesiense rhodesain at 20 uM using Cbz-Phe-Arg-AMC as substrate measured for 30 mins by fluorescence method relative to control
Sequence of Rhodesain (Trypanosoma brucei rhodesiense) (Q95PM0 1-450): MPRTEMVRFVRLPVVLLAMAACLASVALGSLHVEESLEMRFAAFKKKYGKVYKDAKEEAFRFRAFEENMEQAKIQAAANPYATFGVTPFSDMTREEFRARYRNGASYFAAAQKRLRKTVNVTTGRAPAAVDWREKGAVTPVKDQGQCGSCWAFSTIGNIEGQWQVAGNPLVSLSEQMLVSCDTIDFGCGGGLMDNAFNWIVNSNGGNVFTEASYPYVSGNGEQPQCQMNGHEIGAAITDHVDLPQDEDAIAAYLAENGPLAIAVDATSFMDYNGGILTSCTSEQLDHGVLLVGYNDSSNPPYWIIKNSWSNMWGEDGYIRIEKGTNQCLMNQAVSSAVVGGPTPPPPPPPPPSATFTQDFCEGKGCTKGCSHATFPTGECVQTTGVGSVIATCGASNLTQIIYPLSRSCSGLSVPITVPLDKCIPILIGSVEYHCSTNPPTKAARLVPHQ

Rhodesain = Rhodesain (Trypanosoma brucei rhodesiense, UniProt Q95PM0); test: Inhibition of Trypanosoma brucei rhodesiense rhodesain using Cbz-Phe-Arg-AMC as substrate measured for 30 mins by fluorescence method
Sequence of Rhodesain (Q95PM0 whole entry): as the sequence (Q95PM0 1-450) above

[8] = molecular target: Rhodesain (Trypanosoma brucei rhodesiense) (UniProt Q95PM0); test: Inhibition of Trypanosoma brucei rhodesiense rhodesain assessed as second-order rate constant using Cbz-Phe-Arg-AMC as substrate measured for 30 mins by fluorescence method
[9] = molecular target: Cruzipain (Trypanosoma cruzi) (UniProt P25779); test: Inhibition of Trypanosoma cruzi cruzain at 20 uM relative to control
Sequence of Cruzipain (Trypanosoma cruzi) (P25779 123-467 limits assumed): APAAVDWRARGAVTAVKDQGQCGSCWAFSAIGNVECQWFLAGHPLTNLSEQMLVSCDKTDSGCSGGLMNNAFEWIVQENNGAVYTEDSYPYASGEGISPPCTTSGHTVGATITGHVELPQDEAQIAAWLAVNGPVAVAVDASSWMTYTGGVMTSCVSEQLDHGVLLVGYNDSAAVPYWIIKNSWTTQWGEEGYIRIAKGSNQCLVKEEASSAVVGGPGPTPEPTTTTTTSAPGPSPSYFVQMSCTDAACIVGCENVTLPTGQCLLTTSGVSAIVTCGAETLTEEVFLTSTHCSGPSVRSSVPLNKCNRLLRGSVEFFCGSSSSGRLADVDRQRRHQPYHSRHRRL

[10] = system: Trypanosoma brucei rhodesiense; test: Antiprotozoal activity against patient derived Trypanosoma brucei rhodesiense STIB 900 bloodstream form after 70 hrs by Alamar Blue assay; format: functional, organism-based; conditions: STIB 900, 70 h
Plasmodium falciparum = test: Antimalarial activity against erythrocytic stage of synchronized Plasmodium falciparum Dd2 after 48 hrs by Picogreen dye based fluorescence assay; format: functional, organism-based; conditions: Dd2, 48 h
Trypanosoma cruzi = test: Antitrypanosomal activity against Trypanosoma cruzi Tulahuen strain C2C4 amastigote forms harboring LacZ infected in rat L6 cells after 96 hrs by CPRG/Nonidet reagent based photometric method; format: functional, organism-based; conditions: Tulahuen strain C2C4, L6, 96 h
Leishmania donovani = test: Antileishmanial activity against Leishmania donovani MHOM/ET/67/L82 axenic amastigotes after 70 hrs by alamar blue staining based fluorescence assay; format: functional, organism-based; conditions: MHOM/ET/67/L82, 70 h
[11] = Cytotoxicity against human HepG2 cells assessed as cell viability at 1 uM measured after 24 hrs by spectrophotometric method relative to control; format: cell-based; conditions: read-out: Activity
Cathepsin B [12] = molecular target: T1, Cathepsin B; test: Inhibition of human cathepsin B using Cbz-Phe-Arg-AMC as substrate
Procathepsin L [13] = molecular target: T2, Procathepsin L; test: Inhibition of human cathepsin L using Cbz-Phe-Arg-AMC as substrate
Target sequence in this assay (P07711 whole entry): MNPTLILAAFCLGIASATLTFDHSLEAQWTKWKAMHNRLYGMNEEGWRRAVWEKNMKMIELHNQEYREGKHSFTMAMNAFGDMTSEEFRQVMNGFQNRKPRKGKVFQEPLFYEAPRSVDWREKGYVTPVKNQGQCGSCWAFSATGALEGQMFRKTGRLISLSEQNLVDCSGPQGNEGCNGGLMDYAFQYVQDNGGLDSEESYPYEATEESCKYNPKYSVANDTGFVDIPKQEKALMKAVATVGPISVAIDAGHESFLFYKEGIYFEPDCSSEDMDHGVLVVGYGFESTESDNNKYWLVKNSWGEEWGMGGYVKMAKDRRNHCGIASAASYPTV

Cruzipain = Cruzipain (Trypanosoma cruzi, UniProt P25779); test: Inhibition of Trypanosoma cruzi cruzain
Sequence of Cruzipain (P25779 whole entry): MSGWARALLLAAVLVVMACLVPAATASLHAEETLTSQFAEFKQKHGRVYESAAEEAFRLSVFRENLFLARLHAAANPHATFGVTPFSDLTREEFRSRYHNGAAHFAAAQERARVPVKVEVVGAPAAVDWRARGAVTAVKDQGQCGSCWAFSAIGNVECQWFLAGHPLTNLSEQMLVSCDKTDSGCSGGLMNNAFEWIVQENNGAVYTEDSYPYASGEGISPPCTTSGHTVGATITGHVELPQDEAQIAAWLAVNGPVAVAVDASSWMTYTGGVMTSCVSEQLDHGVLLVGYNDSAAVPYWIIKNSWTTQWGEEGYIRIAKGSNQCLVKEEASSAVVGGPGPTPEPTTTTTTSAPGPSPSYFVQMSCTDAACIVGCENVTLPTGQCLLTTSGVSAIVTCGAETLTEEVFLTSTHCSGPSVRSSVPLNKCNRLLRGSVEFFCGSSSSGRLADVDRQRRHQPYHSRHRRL

[14] = molecular target: Cruzipain (Trypanosoma cruzi) (UniProt P25779); test: Inhibition of Trypanosoma cruzi cruzain assessed as second-order rate constant
[15] = molecular target: T3, Falcipain 2 (Plasmodium falciparum); test: Reversible inhibition of Plasmodium falciparum falcipain-2 using Cbz-Phe-Arg-AMC as substrate pretreated for 30 mins followed by substrate addition and measured for 30 mins by dialysis method
[16] = molecular target: Rhodesain (Trypanosoma brucei rhodesiense) (UniProt Q95PM0); test: Reversible inhibition of Trypanosoma brucei rhodesiense rhodesain using Cbz-Phe-Arg-AMC as substrate pretreated for 30 mins followed by substrate addition and measured for 30 mins by dialysis method
[17] = molecular target: Cruzipain (Trypanosoma cruzi) (UniProt P25779); test: Reversible inhibition of Trypanosoma cruzi cruzain pretreated for 30 mins followed by substrate addition and measured for 30 mins by dialysis method
[18] = molecular target: T3, Falcipain 2 (Plasmodium falciparum); test: Irreversible inhibition of Plasmodium falciparum falcipain-2 using Cbz-Phe-Arg-AMC as substrate pretreated for 30 mins followed by substrate addition and measured for 30 mins by dialysis method
[19] = molecular target: Rhodesain (Trypanosoma brucei rhodesiense) (UniProt Q95PM0); test: Irreversible inhibition of Trypanosoma brucei rhodesiense rhodesain using Cbz-Phe-Arg-AMC as substrate pretreated for 30 mins followed by substrate addition and measured for 30 mins by dialysis method
[20] = molecular target: Cruzipain (Trypanosoma cruzi) (UniProt P25779); test: Irreversible inhibition of Trypanosoma cruzi cruzain pretreated for 30 mins followed by substrate addition and measured for 30 mins by dialysis method

CCOC(=O)/C=C/C(=O)[C@H](CCc1ccccc1)NC(=O)[C@H](Cc1ccccc1)NC(=O)OCc1ccccc1
inhibition (Cathepsin B [1]): 100% | K (Cathepsin B [2]): 45500 M⁻¹ s⁻¹ | inhibition (Procathepsin L [3]): 100% | K (Procathepsin L [4]): 45300 M⁻¹ s⁻¹ | inhibition [5]: 100% | IC50 (Falcipain 2): 60 nM | K [6]: 17100 M⁻¹ s⁻¹ | inhibition [7]: 100% | IC50 (Rhodesain): 30 nM | K [8]: 1.27e+06 M⁻¹ s⁻¹ | inhibition [9]: 99% | IC50 [10]: 930 nM | IC50 (Plasmodium falciparum): 16100 nM | IC50 (Trypanosoma cruzi): 20100 nM | IC50 (Leishmania donovani): 12600 nM | viability at 24 h, 1 µM [11]: 100%

CCOC(=O)/C=C/C=C/C(=O)[C@H](CCc1ccccc1)NC(=O)[C@H](Cc1ccccc1)NC(=O)N1CCOCC1
inhibition (Cathepsin B [1]): 90% | IC50 (Cathepsin B [12]): 2250 nM | Ki (Cathepsin B [12]): 1400 nM | inhibition (Procathepsin L [3]): 99% | IC50 (Procathepsin L [13]): 1490 nM | Ki (Procathepsin L [13]): 780000 nM | inhibition [7]: 98% | IC50 (Rhodesain): 560 nM | IC50 (Cruzipain): > 2000 nM | K [14]: 0.56 M⁻¹ s⁻¹ | inhibition [15]: Active | inhibition [16]: Active | inhibition [17]: Active | inhibition [18]: Active | inhibition [19]: Active | inhibition [20]: Active
